Results: patent publication US20210315971A1, “COMPOSITIONS ACTING AS PRO(RENIN) RECEPTOR ANTAGONISTS FOR THE TREATMENT OF NON-ALCOHOLIC FATTY LIVER DISEASE” (Board of Regents of the Nevada System of Higher Education …, priority 2018, published 2021)

Assays:
Format in all cases: in vivo
[1] = test system: liver renin-angiotensin system; experiment: Liver renin-angiotensin system activation induced by high fat diet; conditions: subcutaneous administration, high fat diet mice (FIG. 8)
[2] = test system: peroxisome proliferator-activated receptor gamma (PPARγ); experiment: Liver PPARγ in high fat diet mice; conditions: subcutaneous administration, high fat diet mice (FIG. 7)
Text: FIG. 7 illustrates subcutaneous administration of PRR antagonist, PRO20, attenuates peroxisome proliferator-activated receptor gamma (PPARγ). […] PRO20 treatment prevents the upregulating of PPARγ in the liver supporting a mechanism for the beneficial role of PRO20 in preventing fatty liver development.
Non-alcoholic fatty liver steatohepatitis (NASH) represents a diverse array of liver damage linked to obesity, metabolic syndrome, and diabetes. The mechanisms and the treatment for NASH remains lacking. The inventors hypothesized that PRR antagonism using PRO20 prevents NASH development. FIG. 6 illustrates subcutaneous administration of PRR antagonist, PRO20, attenuates high fat diet induced-liver steatosis in mice. Wild-type C57Bl/6J mice were treated with either with either HFD (60% calories from fat) or normal fat chow (NFD, 10% calories from fat) with matching calories for 6 weeks. Two week following diet modification, HFD mice were implanted with subcutaneous osmotic pump containing either PRO20 (27 ug/kg/d) or saline for 4 weeks. Liver tissues were processed for Oil Red 0 staining for lipid accumulation and quantified using Image)/FIJI software. Data were presented % of ORO staining to the total area. N=4 mice/group. *p<0.01 vs. NFD; #P<0.05 vs. HFD Saline; One-way ANOVA. […]

Wild-type C57Bl/6J mice = experiment: High fat diet induced liver steatosis in mice, Oil Red O staining of liver; conditions: HFD 6 weeks; PRO20 27 ug/kg/d by subcutaneous osmotic pump for 4 weeks; HFD saline 17.57±3.23%, NFD 3.51±0.86%; N=4 mice/group
Experimental: Non-alcoholic fatty liver steatohepatitis (NASH) represents a diverse array of liver damage linked to obesity, metabolic syndrome, and diabetes. The mechanisms and the treatment for NASH remains lacking. The inventors hypothesized that PRR antagonism using PRO20 prevents NASH development. FIG. 6 illustrates subcutaneous administration of PRR antagonist, PRO20, attenuates high fat diet induced-liver steatosis in mice. Wild-type C57Bl/6J mice were treated with either with either HFD (60% calories from fat) or normal fat chow (NFD, 10% calories from fat) with matching calories for 6 weeks. Two week following diet modification, HFD mice were implanted with subcutaneous osmotic pump containing either PRO20 (27 ug/kg/d) or saline for 4 weeks. Liver tissues were processed for Oil Red 0 staining for lipid accumulation and quantified using Image)/FIJI software. Data were presented % of ORO staining to the total area. N=4 mice/group. *p<0.01 vs. NFD; #P<0.05 vs. HFD Saline; One-way ANOVA. 6 weeks of HFD (17.57±3.23%) induced a significant elevation on liver ORO staining compared with the liver from mice fed with NFD (3.51±0.86%, p=0.005). […] FIG. 7 illustrates subcutaneous administration of PRR antagonist, PRO20, attenuates peroxisome proliferator-activated receptor gamma (PPARγ).

In the case of “LPTDTTTFKRIFLKRMPSI (Synthetic (pro)renin receptor agonist peptide) [PRO20]”, the “Effect on liver renin-angiotensin system activation induced by high fat diet” value [1] is reported as “prevents activation”, the “Effect on liver PPARγ” value [2] is reported as “attenuates” and the “% of ORO staining to the total area (liver lipid accumulation)” value (Wild-type C57Bl/6J mice) is reported as 7.34±1.96%.
